# Assay results as given in US20260210856A1, “CONJUGATED OLIGOELECTROLYTES WITH BORON-DIPYRROMETHENE CORES AND METHODS THEREOF” (National University of Singapore, priority 2022, published 2026).
# Legend:
# [1] = Photophysical properties in PBS and in SUVs (POPC:POPG 85:15); assay type: physicochemical; details: for FWHM: fluorescence spectra, intercalated within SUVs; for fluorescence intensity increase upon inserting into lipid bilayers: relative to the values measured in PBS
# Excerpt: The photophysical properties of the COE-BY series were studied in phosphate-buffered saline (PBS) and within model lipid bilayers. Small unilamellar vesicles (SUVs) composed of 1-palmitoyl-2-oleoyl-glycero-3-phosphocholine (POPC) and 1-palmitoyl-2-oleoyl-sn-glycero-3-phospho-(1′-rac-glycerol) sodium (POPG) (85:15, mol/mol) were used to simulate the lipid environment in cell membranes. The absorption spectra in PBS for all compounds feature a main peak at ~550 nm, reflecting the presence of the BODIPY subunit (FIG. 9A). One also observes a 5-10 nm red-shift of lowest energy absorption peak with increasing electron-withdrawing strength of the phenyl substituents.
# Upon inserting into lipid bilayers, the fluorescence intensity increases over 27-fold for COE-BYPhMe, 30-fold for COE-BYPhOC4, 35-fold for COE-BYPhCN and 40-fold for COE-BYPhNO, relative to the values measured in PBS (FIG. 1c and FIG. S5). The increase in emission intensity reflects a transition to a more rigid and hydrophobic environment. Quantum yields increase to 32% for COE-BYPhMe, 60% for COE-BYPhOC4, 13% for COE-BYPhCN, and 10% for COE-BYPhNO in SUVs from 1% for COE-BYPhMe, 3% for COE-BYPhOC4, and 0.5% for COE-BYPhCN in PBS. The QY of COE-BYPhNO in PBS cannot be accurately determined by using a conventional fluorometer due to its weak fluorescence. The maximum emission wavelengths are redshifted from 587/589 nm (COE-BYPhMe/OC4) to 605/611 nm (COE-BYPhCN/NO) as a result of the decreased HOMO-LUMO energy gaps. […] Furthermore, the fluorescence spectra of COE-BYs intercalated within SUVs show a narrow band at wavelengths between 587 nm and 611 nm, with a full width half maximum (FWHM) linewidth of 52-68 nm (Table 1).
# A549 cells = experiment: Two-photon fluorescence imaging and FLIM of stained cells; assay type: cell-based; details: A549, 1 μM, 24 hours
# Excerpt: Fluorescence imaging is usually based on the analysis of fluorescence intensity, which is affected by many factors including dye concentration, laser power, the sensitivity of the detector, and sampling time. The main advantage of fluorescence lifetime imaging (FLIM) is independent of the above experimental conditions, especially the local dye concentration gradients, which makes FLIM an ideal method for studies in living cell models. […] The fluorescence lifetime of COE-BYs could be a function of viscosity after calibration. FLIM makes it possible to produce spatial viscosity maps after staining with COE-BYs. A549 cells were stained with COE-BYPhMe and COE-S6 (1 μM) for 24 hours, respectively. The cell samples were analyzed using two-photon fluorescence imaging and FLIM.
# [2] = commercial dyes for comparison; cited from earlier work
FWHM [1],ΦF in PBS ([1]; in PBS),λabs ([1]; in PBS),λem in PBS ([1]; in PBS),ΦF in SUVs [1],λem in SUVs [1],fluorescence intensity increase upon inserting into lipid bilayers [1],Compound,lifetimes in phasor plot (A549 cells),two photon absorption cross section area [2]
63 nm,0.5%,550 nm,618 nm,13%,605 nm,> 35 fold,CC1=C(c2ccc(/C=C/c3cc(OCCCCCC[N+](C)(C)C)c(OCCCCCC[N+](C)(C)C)c(OCCCCCC[N+](C)(C)C)c3)cc2)C(C)=[N+]2C1=C(c1ccc(C#N)cc1)c1c(C)c(-c3ccc(/C=C/c4cc(OCCCCCC[N+](C)(C)C)c(OCCCCCC[N+](C)(C)C)c(OCCCCCC[N+](C)(C)C)c4)cc3)c(C)n1[B-]2(F)F.[I-].[I-].[I-].[I-].[I-].[I-] [COE-BYPhCN],,
68 nm,,556 nm,625 nm,10%,611 nm,> 40 fold,CC1=C(c2ccc(/C=C/c3cc(OCCCCCC[N+](C)(C)C)c(OCCCCCC[N+](C)(C)C)c(OCCCCCC[N+](C)(C)C)c3)cc2)C(C)=[N+]2C1=C(c1ccc([N+](=O)[O-])cc1)c1c(C)c(-c3ccc(/C=C/c4cc(OCCCCCC[N+](C)(C)C)c(OCCCCCC[N+](C)(C)C)c(OCCCCCC[N+](C)(C)C)c4)cc3)c(C)n1[B-]2(F)F.[I-].[I-].[I-].[I-].[I-].[I-] [COE-BYPhNO],,
,,,,,,,C[N+](C)(C)CCCCCCOc1cc(/C=C/c2ccc(/C=C/c3ccc(/C=C/c4ccc(/C=C/c5ccc(/C=C/c6cc(OCCCCCC[N+](C)(C)C)c(OCCCCCC[N+](C)(C)C)c(OCCCCCC[N+](C)(C)C)c6)cc5)cc4)cc3)cc2)cc(OCCCCCC[N+](C)(C)C)c1OCCCCCC[N+](C)(C)C.[I-].[I-].[I-].[I-].[I-].[I-] [COE-S6],only single area in the phasor plot,
,,,,,,,"CCCCCCCCCCCCCCCCCCN1/C(=C/C=C/C2=[N+](CCCCCCCCCCCCCCCCCC)c3ccccc3C2(C)C)C(C)(C)c2ccccc21.[O-][Cl+3]([O-])([O-])[O-] [DiL, carbocyanine DiL]",,10 GM
,,,,,,,CCN(CC)c1ccc2c(-c3ccccc3C(=O)O)c3ccc(=[N+](CC)CC)cc-3oc2c1.[Cl-] [Rhodamine B],,150 GM
